Assay results from patent publication US9169254B2, “Spiroimidazolone derivative” (Chugai Seiyaku Kabushiki Kaisha, priority 2009, dated 2015).

biological target: T1, human PTH1 receptor (Homo sapiens, UniProt Q03431); experiment: In vitro cAMP signal activity in HKRK-B7 cells (LLC-PK1 cells overexpressing the human PTH1 receptor); format: cell-based; conditions: HKRK-B7 cells; compound at 1×10^−3 M; cAMP produced as percentage of that produced by hPTH(1-34) at 100 nM
T1 sequence (Q03431 27-593): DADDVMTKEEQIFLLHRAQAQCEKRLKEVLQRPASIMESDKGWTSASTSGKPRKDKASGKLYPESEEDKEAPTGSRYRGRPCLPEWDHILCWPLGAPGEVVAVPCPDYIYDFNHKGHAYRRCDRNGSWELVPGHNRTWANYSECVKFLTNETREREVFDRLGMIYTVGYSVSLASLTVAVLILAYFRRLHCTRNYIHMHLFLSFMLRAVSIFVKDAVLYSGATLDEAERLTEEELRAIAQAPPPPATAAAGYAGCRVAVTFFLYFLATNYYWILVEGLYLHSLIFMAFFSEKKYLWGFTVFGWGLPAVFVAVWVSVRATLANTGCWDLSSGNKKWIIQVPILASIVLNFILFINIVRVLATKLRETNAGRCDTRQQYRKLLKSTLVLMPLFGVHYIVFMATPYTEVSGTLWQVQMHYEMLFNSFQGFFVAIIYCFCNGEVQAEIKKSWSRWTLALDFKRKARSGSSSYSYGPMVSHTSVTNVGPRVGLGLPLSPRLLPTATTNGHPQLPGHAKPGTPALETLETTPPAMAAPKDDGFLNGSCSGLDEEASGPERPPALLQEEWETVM

Q: Which “cAMP production activity (%)” value does the source give for `CC(=O)Nc1ccc(/C=C/S(=O)(=O)N2CCC3(CC2)N=C(c2cccc(C(F)(F)F)c2)NC3=O)c(C)c1` [Compound 215, N-(3-Methyl-4-{(E)-2-[4-oxo-2-(3-trifluoromethyl-phenyl)-1,3,8-triaza-spiro[4.5]dec-1-ene-8-sulfonyl]-vinyl}-phenyl)-acetamide] here?
A: 81%

Q: `Cc1cc(C(=O)N2CCN(C)CC2)ccc1/C=C/S(=O)(=O)N1CCC2(CC1)N=C(c1cccc(C(F)(F)F)c1)NC2=O` [Compound 216, 8-{(E)-2-[2-methyl-4-(4-methyl-piperazine-1-carbonyl)-phenyl]-ethenesulfonyl}-2-(3-trifluoromethyl-phenyl)-1,3,8-triaza-spiro[4.5]dec-1-en-4-one] was tested. Which “cAMP production activity (%)” value did it give?
A: 84%

Q: Which “cAMP production activity (%)” value does the source give for `Cc1cc(S(=O)(=O)NCC(F)(F)F)ccc1/C=C/S(=O)(=O)N1CCC2(CC1)N=C(c1cccc(C(F)(F)F)c1)NC2=O` [Compound 217, 3-methyl-4-{(E)-2-[4-oxo-2-(3-trifluoromethyl-phenyl)-1,3,8-triaza-spiro[4.5]dec-1-ene-8-sulfonyl]-vinyl}-N-(2,2,2-trifluoro-ethyl)-benzenesulfonamide] here?
A: 41%

Q: How did the “cAMP production activity (%)” value turn out when `Cc1cc(S(=O)(=O)NCCN2CCOCC2)ccc1/C=C/S(=O)(=O)N1CCC2(CC1)N=C(c1cccc(C(F)(F)F)c1)NC2=O` [Compound 218, 3-methyl-N-(2-morpholin-4-yl-ethyl)-4-{(E)-2-[4-oxo-2-(3-trifluoromethyl-phenyl)-1,3,8-triaza-spiro[4.5]dec-1-ene-8-sulfonyl]-vinyl}-benzenesulfonamide] was run?
A: 72%

Q: `Cc1cc(S(=O)(=O)Nc2cccnc2)ccc1/C=C/S(=O)(=O)N1CCC2(CC1)N=C(c1cccc(C(F)(F)F)c1)NC2=O` [Compound 219, 3-methyl-4-{(E)-2-[4-oxo-2-(3-trifluoromethyl-phenyl)-1,3,8-triaza-spiro[4.5]dec-1-ene-8-sulfonyl]-vinyl}-N-pyridin-3-yl-benzenesulfonamide] was tested. Which “cAMP production activity (%)” value did it give?
A: 60%

Q: With `Cc1cc(N2C[C@H](O)CC2=O)ccc1/C=C/S(=O)(=O)N1CCC2(CC1)N=C(c1cccc(C(F)(F)F)c1)NC2=O` [Compound 220, 8-{(E)-2-[4-((R)-4-hydroxy-2-oxo-pyrrolidin-1-yl)-2-methyl-phenyl]-ethenesulfonyl}-2-(3-trifluoromethyl-phenyl)-1,3,8-triaza-spiro[4.5]dec-1-en-4-one] as the compound, how does the “cAMP production activity (%)” value read?
A: 80%

Q: How did the “cAMP production activity (%)” value turn out when `Cc1cc(N2C[C@H](CO)OC2=O)ccc1/C=C/S(=O)(=O)N1CCC2(CC1)N=C(c1cccc(C(F)(F)F)c1)NC2=O` [Compound 222, 8-{(E)-2-[4-((R)-5-hydroxymethyl-2-oxo-oxazolidin-3-yl)-2-methyl-phenyl]-ethenesulfonyl}-2-(3-trifluoromethyl-phenyl)-1,3,8-triaza-spiro[4.5]dec-1-en-4-one] was run?
A: 43%

Q: Which “cAMP production activity (%)” value does the source give for `Cc1cc(S(=O)(=O)NCCCO)ccc1/C=C/S(=O)(=O)N1CCC2(CC1)N=C(c1cccc(OC(F)(F)F)c1)NC2=O` [Compound 224, N-(3-Hydroxy-propyl)-3-methyl-4-{(E)-2-[4-oxo-2-(3-trifluoromethoxy-phenyl)-1,3,8-triaza-spiro[4.5]dec-1-ene-8-sulfonyl]-vinyl}-benzenesulfonamide] here?
A: 54%

Q: `CC(=O)N(C)c1ccc(C)c(/C=C/S(=O)(=O)N2CCC3(CC2)N=C(c2cccc(OC(F)(F)F)c2)NC3=O)c1` [Compound 225, N-methyl-N-(4-methyl-3-{(E)-2-[4-oxo-2-(3-trifluoromethoxy-phenyl)-1,3,8-triaza-spiro[4.5]dec-1-ene-8-sulfonyl]-vinyl}-phenyl)-acetamide] was tested. Which “cAMP production activity (%)” value did it give?
A: 47%

Q: For `Cc1c(O)cccc1/C=C/S(=O)(=O)N1CCC2(CC1)N=C(c1cccc(OC(F)(F)F)c1)NC2=O` [Compound 226, 8-[(E)-2-(3-Hydroxy-2-methyl-phenyl)-ethenesulfonyl]-2-(3-trifluoromethoxy-phenyl)-1,3,8-triaza-spiro[4.5]dec-1-en-4-one], which “cAMP production activity (%)” value is on record?
A: 83%

Q: `Cc1ccc(O)cc1/C=C/S(=O)(=O)N1CCC2(CC1)N=C(c1cccc(OC(F)(F)F)c1)NC2=O` [Compound 227, 8-[(E)-2-(5-hydroxy-2-methyl-phenyl)-ethenesulfonyl]-2-(3-trifluoromethoxy-phenyl)-1,3,8-triaza-spiro[4.5]dec-1-en-4-one] was tested. Which “cAMP production activity (%)” value did it give?
A: 87%

Q: With `Cc1cc(NS(C)(=O)=O)cc(C)c1/C=C/S(=O)(=O)N1CCC2(CC1)N=C(c1cccc(OC(F)(F)F)c1)NC2=O` [Compound 229, N-(3,5-dimethyl-4-{(E)-2-[4-oxo-2-(3-trifluoromethoxy-phenyl)-1,3,8-triaza-spiro[4.5]dec-1-ene-8-sulfonyl]-vinyl}-phenyl)-methanesulfonamide] as the compound, how does the “cAMP production activity (%)” value read?
A: 68%

Q: With `Cc1cc(C(=O)N2CCC(O)CC2)ccc1/C=C/S(=O)(=O)N1CCC2(CC1)N=C(c1cccc(OC(F)(F)F)c1)NC2=O` [Compound 230, 8-{(E)-2-[4-(4-hydroxy-piperidine-1-carbonyl)-2-methyl-phenyl]-ethenesulfonyl}-2-(3-trifluoromethoxy-phenyl)-1,3,8-triaza-spiro[4.5]dec-1-en-4-one] as the compound, how does the “cAMP production activity (%)” value read?
A: 66%

Q: How did the “cAMP production activity (%)” value turn out when `Cc1cc(C(=O)N(C)C)ccc1/C=C/S(=O)(=O)N1CCC2(CC1)N=C(c1cccc(OC(F)(F)F)c1)NC2=O` [Compound 231, 3,N,N-trimethyl-4-{(E)-2-[4-oxo-2-(3-trifluoromethoxy-phenyl)-1,3,8-triaza-spiro[4.5]dec-1-ene-8-sulfonyl]-vinyl}-benzamide] was run?
A: 96%

Q: With `CC(=O)N(CCO)c1ccc(/C=C/S(=O)(=O)N2CCC3(CC2)N=C(c2cccc(OC(F)(F)F)c2)NC3=O)c(C)c1` [Compound 232, N-(2-hydroxy-ethyl)-N-(3-methyl-4-{(E)-2-[4-oxo-2-(3-trifluoromethoxy-phenyl)-1,3,8-triaza-spiro[4.5]dec-1-ene-8-sulfonyl]-vinyl}-phenyl)-acetamide] as the compound, how does the “cAMP production activity (%)” value read?
A: 69%

Q: With `CN(C)C(=O)c1ccc(/C=C/S(=O)(=O)N2CCC3(CC2)N=C(c2cccc(OC(F)(F)F)c2)NC3=O)c(F)c1` [Compound 233, 3-fluoro-N,N-dimethyl-4-{(E)-2-[4-oxo-2-(3-trifluoromethoxy-phenyl)-1,3,8-triaza-spiro[4.5]dec-1-ene-8-sulfonyl]-vinyl}-benzamide] as the compound, how does the “cAMP production activity (%)” value read?
A: 13%

Q: How did the “cAMP production activity (%)” value turn out when `O=C1NC(c2cccc(OC(F)(F)F)c2)=NC12CCN(S(=O)(=O)/C=C/c1cc(Cl)c(OCCC(O)CO)cc1Cl)CC2` (stereo not drawn) [Compound 234, 8-{(E)-2-[2,5-dichloro-4-(3,4-dihydroxy-butoxy)-phenyl]-ethenesulfonyl}-2-(3-trifluoromethoxy-phenyl)-1,3,8-triaza-spiro[4.5]dec-1-en-4-one] was run?
A: 78%

Q: How did the “cAMP production activity (%)” value turn out when `Cc1cc(OCCCN(C)C)ccc1/C=C/S(=O)(=O)N1CCC2(CC1)N=C(c1cccc(OC(F)(F)F)c1)NC2=O` [Compound 235, 8-{(E)-2-[4-(3-dimethylamino-propoxy)-2-methyl-phenyl]-ethenesulfonyl}-2-(3-trifluoromethoxy-phenyl)-1,3,8-triaza-spiro[4.5]dec-1-en-4-one] was run?
A: 49%

Q: `CC(=O)N(C)c1cccc(/C=C/S(=O)(=O)N2CCC3(CC2)N=C(c2cccc(OC(F)(F)F)c2)NC3=O)c1C` [Compound 236, N-methyl-N-(2-methyl-3-{(E)-2-[4-oxo-2-(3-trifluoromethoxy-phenyl)-1,3,8-triaza-spiro[4.5]dec-1-ene-8-sulfonyl]-vinyl}-phenyl)-acetamide] was tested. Which “cAMP production activity (%)” value did it give?
A: 40%

Q: Which “cAMP production activity (%)” value does the source give for `CC(=O)N(C)c1ccc(/C=C/S(=O)(=O)N2CCC3(CC2)N=C(c2cccc(OC(F)(F)F)c2)NC3=O)c(C)c1` [Compound 237, N-methyl-N-(3-methyl-4-{(E)-2-[4-oxo-2-(3-trifluoromethoxy-phenyl)-1,3,8-triaza-spiro[4.5]dec-1-ene-8-sulfonyl]-vinyl}-phenyl)-acetamide] here?
A: 74%

Q: With `CC(=O)Nc1cc(C)c(/C=C/S(=O)(=O)N2CCC3(CC2)N=C(c2cccc(OC(F)(F)F)c2)NC3=O)c(C)c1` [Compound 238, N-(3,5-dimethyl-4-{(E)-2-[4-oxo-2-(3-trifluoromethoxy-phenyl)-1,3,8-triaza-spiro[4.5]dec-1-ene-8-sulfonyl]-vinyl}-phenyl)-acetamide] as the compound, how does the “cAMP production activity (%)” value read?
A: 90%

Q: For `CC(=O)N(C)c1cc(C)c(/C=C/S(=O)(=O)N2CCC3(CC2)N=C(c2cccc(OC(F)(F)F)c2)NC3=O)c(C)c1` [Compound 239, N-(3,5-dimethyl-4-{(E)-2-[4-oxo-2-(3-trifluoromethoxy-phenyl)-1,3,8-triaza-spiro[4.5]dec-1-ene-8-sulfonyl]-vinyl}-phenyl)-N-methyl-acetamide], which “cAMP production activity (%)” value is on record?
A: 80%

Q: How did the “cAMP production activity (%)” value turn out when `O=C1NC(C2CCCCCC2)=NC12CCN(S(=O)(=O)/C=C/c1cccc3c1ccn3C[C@H](O)CO)CC2` [Compound 240, 2-Cycloheptyl-8-{(E)-2-[1-((S)-2,3-dihydroxy-propyl)-1H-indol-4-yl]-ethenesulfonyl}-1,3,8-triaza-spiro[4.5]dec-1-en-4-one] was run?
A: 49%

Q: With `O=C1NC(C2CCC(F)(F)CC2)=NC12CCN(S(=O)(=O)/C=C/c1cccc3c1ccn3C[C@H](O)CO)CC2` [Compound 241, 2-(4,4-difluoro-cyclohexyl)-8-{(E)-2-[1-((S)-2,3-dihydroxy-propyl)-1H-indol-4-yl]-ethenesulfonyl}-1,3,8-triaza-spiro[4.5]dec-1-en-4-one] as the compound, how does the “cAMP production activity (%)” value read?
A: 44%
